Source: patent publication US5393765A, “Pharmaceutical compositions with constant erosion volume for zero order controlled release” (Hoffmann-La Roche Inc., priority 1993, dated 1995)
Converted amounts (≈) assume the structure as drawn. Counter-ions that a name gives are not always drawn. Like-named read-outs stand apart in the source and are kept apart here.

What was measured:
[1] = Solubility of the exemplary drugs in water at 25° C.; format: physicochemical
Description: Solubility of the exemplary drugs in water at 25° C. is as follows: […]

[2] = Drug release from the erodible matrix, USP dissolution test (Basket or Paddle Method); format: physicochemical; conditions: in the given dissolution medium; FIGS. 2-7 and 9-15; FIG. 8 (chlorpheniramine maleate composition with the polymer, water, 37° C., Basket Method, 100 rpm)
Description: The evaluation of drug release from the erodible matrix was performed using the USP dissolution test procedure with either the Basket or Paddle Method at the speed as specified. […] Briefly, in both methods, one tablet is placed in the appropriate apparatus described below containing the specified amount of dissolution medium and the stirring element is started. The amount of drug in solution is determined by the UV spectrophotometric method as is known in the art. The assembly used in the Basket Method consists of the following: a covered vessel made of glass with nominal capacity 1000 mL; a motor; a metallic drive shaft; and a cylindrical basket. The vessel containing 900 mL of the specified dissolution medium (i.e., water, 1% nonionic surfactant Emulphor ON-870 in phosphate buffer, pH 7.5 or 3% sodium lauryl sulfate, pH 9.0) is partially immersed in a suitable water bath and equilibrated at 37°±0.5° C. A fitted cover may be used to retard evaporation. The shaft is positioned so that its axis is not more than 2 mm at any point from the vertical axis of the vessel and rotates smoothly and without significant wobble. A speed-regulating device is used that allows the shaft rotation speed to be selected and maintained at the specified rate. The recommended basket speed is 100 rpm. […] The drug analysis was determined by UV spectrophotometry.

[3] = in water at 25° C., read-out: Solubility

SMILES	solubility [1, 3] [µg/mL]	further results
O=C(CCCCCCCCc1cccnc1)N1CCC(C=C(c2ccccc2)c2ccccc2)CC1 [4-(2,2-Diphenylethenyl)-1-[1-oxo-9-(3-pyridinyl)nonyl]piperidine]	0.182 (≈ 0.379 µM)	–
CCC(CC)(CC(=O)Nc1cccc(/C=C/c2nc(C3CCC3)cs2)c1)C(=O)O [(E)-4-[[3-[2-(4-Cyclobutyl-2-thiazolyl)ethenyl]phenyl]amino]-2,2-diethyl-4-oxobutanoic acid]	< 2	–
Cc1nnc2n1-c1sc(C#CCn3c(=O)c4ccccc4c4ccccc43)cc1C(c1ccccc1Cl)=NC2 [5-[3-[4-(2-Chlorophenyl)-9-methyl-6H-thieno[3,2-f][1,2,4]triazolo[4,3-a][1,4]diazepin-2-yl]-2-propynyl]phenanthrydin-6(5H)-one]	–	solubility ([1]; water): 0.01 µg/mL (≈ 0.0183 µM)
CNC1=Nc2ccc(Cl)cc2C(c2ccc[nH]2)=NC1 [7-Chloro-N-methyl-5-(1H-pyrrol-2-yl)-3H-1,4-benzodiazepin-2-amine]	1.5 (≈ 5.5 µM)	–
CN(C)CCC(c1ccc(Cl)cc1)c1ccccn1 (stereo not drawn) [chlorpheniramine maleate]	–	Release profile (zero order) [2]: does not produce a zero-order release profile
COc1ccc([C@@H]2Sc3c(ccc4ccccc34)N(CCN(C)C)C(=O)[C@@H]2OC(C)=O)cc1 (single isomer, unassigned) [(+)-cis-3-(Acetyloxy)-2,3-dihydro-2-(4-methoxyphenyl)-5-[2-(dimethylamino)ethyl]naphtho[1,2-b]-1,4-thiazepin-4(5H)-one]	80000 (≈ 172000 µM)	–
